According to patent US8389011B2, “Pharmaceutical compositions of cholesteryl ester transfer protein inhibitors” (Bend Research, Inc., priority 2000, dated 2013):

Assay: In vitro dissolution test, microcentrifuge method, in model fasted duodenal solution (MFDS)
Assay type: physicochemical
Details: summary Table 48
Method: The compositions comprising the CETP inhibitor and concentration-enhancing polymer provide enhanced concentration of the dissolved CETP inhibitor in in vitro dissolution tests. It has been determined that enhanced drug concentration in in vitro dissolution tests in Model Fasted Duodenal (MFD) solution or Phosphate Buffered Saline (PBS) is a good indicator of in vivo performance and bioavailability. An appropriate PBS solution is an aqueous solution comprising 20 mM sodium phosphate (Na2HPO4), 47 mM potassium phosphate (KH2PO4), 87 mM NaCl, and 0.2 mM KCl, adjusted to pH 6.5 with NaOH. An appropriate MFD solution is the same PBS solution wherein additionally is present 7.3 mM sodium taurocholic acid and 1.4 mM of 1-palmitoyl-2-oleyl-sn-glycero-3-phosphocholine. In particular, a composition of the present invention can be dissolution-tested by adding it to MFD or PBS solution and agitating to promote dissolution.
A typical in vitro test to evaluate enhanced drug concentration in aqueous solution can be conducted by (1) adding with agitation a sufficient quantity of control composition, typically the CETP inhibitor alone, to the in vitro test medium, typically MFD or PBS solution, to achieve equilibrium concentration of the CETP inhibitor; (2) adding with agitation a sufficient quantity of test composition (e.g., the CETP inhibitor and polymer) in an equivalent test medium, such that if all the CETP inhibitor dissolved, the theoretical concentration of CETP inhibitor would exceed the equilibrium concentration of the CETP inhibitor by a factor of at least 10, and preferably a factor of at least 100; and (3) comparing the measured MDC and/or aqueous concentration versus time AUC of the test composition in the test medium with the equilibrium concentration, and/or the aqueous concentration versus time AUC of the control composition. In conducting such a dissolution test, the amount of test composition or control composition used is an amount such that if all of the CETP inhibitor dissolved the CETP inhibitor concentration would be at least 10-fold and preferably at least 100-fold that of the equilibrium concentration. Indeed, for some extremely insoluble CETP inhibitors, in order to identify the MDC achieved it may be necessary to use an amount of test composition such that if all of the CETP inhibitor dissolved, the CETP inhibitor concentration would be 10,000-fold or even more, that of the equilibrium concentration of the CETP inhibitor.
The concentration of dissolved CETP inhibitor is typically measured as a function of time by sampling the test medium and plotting CETP inhibitor concentration in the test medium vs. time so that the MDC can be ascertained. The MDC is taken to be the maximum value of dissolved CETP inhibitor measured over the duration of the test.
To avoid large CETP inhibitor particulates which would give an erroneous determination, the test solution is either filtered or centrifuged. “Dissolved CETP inhibitor” is typically taken as that material that either passes a 0.45 μm syringe filter or, alternatively, the material that remains in the supernatant following centrifugation. Filtration can be conducted using a 13 mm, 0.45 μm polyvinylidine difluoride syringe filter sold by Scientific Resources under the trademark TITAN®. Centrifugation is typically carried out in a polypropylene microcentrifuge tube by centrifuging at 13,000 G for 60 seconds. Other similar filtration or centrifugation methods can be employed and useful results obtained. For example, using other types of microfilters may yield values somewhat higher or lower (±10-40%) than that obtained with the filter specified above but will still allow identification of preferred dispersions. […]

In the case of `CCOC(=O)N1c2ccc(C(F)(F)F)cc2[C@@H](N(Cc2cc(C(F)(F)F)cc(C(F)(F)F)c2)C(=O)OC)C[C@H]1CC` [Control 2, [2R,4S]4-[(3,5-bis-trifluoromethyl-benzyl)-methoxycarbonyl-amino]-2-ethyl-6-trifluoromethyl-3,4-dihydro-2H-quinoline-1-carboxylic acid ethyl ester], the AUC90 (AUC through 90 min) is reported as under 88 min-μg/ml and the “Cmax, 90” value (maximum Drug 2 concentration through 90 min) is reported as under 1000 ng/mL.
